Experimental data: patent US20160166700A1, “METHOD FOR AMELIORATING LIVER FIBROSIS BY USING NANOPARTICLE CONTAINING TYROSINE KINASE INHIBITOR” (National Tsing Hua University, priority 2014, published 2016)

What was measured:
collagen I = assay: Extracellular matrix (collagen I) content in fibrotic liver of treated mice; format: in vivo; conditions: FIG. 9C
Text: Collagen is the most abundant protein in not only the human body but also the extracellular matrix.

[1] = system: hepatic stellate cell (HSC); format: cell-based; conditions: HSCs; MTT after 48 or 72 hours; FIG. 5B
Description: The HSC was purchased from ScienCell Research Laboratories (#5300, San Diego, Calif., USA) and the HUVEC was obtained from Bioresource Collection and Research Center, Food Industry Research and Development Institute (BCRC number: H-UV001, Hsinchu, Taiwan). Firstly, HUVECs and HSCs were planted in 96-well plates at a density of 2,000 cells/well and were left overnight for adhesion. Then, different forms of sorafenib or drug carriers were added. After 48 or 72 hours, 3-(4, 5-cimethylthiazol-2-yl)-2, 5-diphenyl tetrazolium bromide (MTT), which dissolved in PBS, was added to each well and the cells were further incubated at 37° C. for 3 hours. Finally, to each well, 50 μL of DMSO were added and a spectrophotometer was used to analyze the result at a wavelength of 570 nm. […] In addition, cells without any treatment served as Vehicle Group, while cells treated with free sorafenib served as Positive Control Group. […] Meanwhile, according to the results of cell viability of the cells treated with the PEG-PLGA particle alone (Negative Control Group 1) and PEG-PLGA/PLGA nanoparticle composition alone (Negative Control Group 2), it is confirmed that the PEG-PLGA and PEG-PLGA/PLGA co-polymer are non-cytotoxic and will not result in death of the target cells.

[2] = system: α-smooth muscle actin (α-SMA); assay: α-SMA expression (western blotting) as indicator for HSC activation in treated mice; format: in vivo; conditions: FIG. 9A
Text: The expression of α-smooth muscle actin (α-SMA) is an indicator for HSC activation.

[3] = Pharmacokinetics of injected C6-loaded nanoparticle composition (C6 in blood); format: in vivo, C3H mice; conditions: 0.5 to 1 hour after injection; 0.1 mg/kg tail intravenous injection; FIG. 6
Description: C6 was injected to C3H mice with or without the nanoparticle encapsulation at a dosage of 0.1 mg/kg via tail intravenous injection. 40 μL of blood from the tail artery of the mice were collected and mixed with ethylenediaminetetraacetic acid (EDTA) at different period of time. Fluorescence intensity was measured under an excitation wavelength of 485 nm and an emission wavelength of 538 nm. Standard curves of the C6 or C6-loaded PLGA nanoparticle composition in blood were used to calculate the content of C6 in mice.

For `CNC(=O)c1cc(Oc2ccc(NC(=O)Nc3ccc(Cl)c(C(F)(F)F)c3)cc2)ccn1` [free sorafenib, sorafenib], the “extracellular matrix in fluorescent microscopic image (illuminated regions)” value (collagen I) was “not noteworthy”, the cell viability [1] was “about 75%” and the “α-SMA expression (western blotting)” value [2] was “suppressed”.

In the case of `CCN(CC)c1ccc2cc(-c3nc4ccccc4s3)c(=O)oc2c1` [C6 alone, Coumarin 6], the “C6 concentration in blood” value [3] is reported as “about 1%”.
